Data as given in ChEMBL document CHEMBL1150542, “Enzymatic synthesis and antiviral ativity of 2-deoxy-2-fluoro-ribavirin” (Bioorg Med Chem Lett, 1996).
The source made the active and inactive calls.

Legend:
[1] = test system: MDCK; experiment: Compound was tested for antiviral activity against influenza B in MDCK cells at concentration of 100 uM; Not active; format: functional, cell-based; settings: Canis lupus familiaris
[2] = test system: Human alphaherpesvirus 3; experiment: Compound was tested for antiviral activity against VZV; Not active; format: functional, organism-based
[3] = test system: MDCK; experiment: Compound was tested for antiviral activity against influenza A in MDCK cells at concentration of 100 uM; Not active; format: functional, cell-based; settings: Canis lupus familiaris
[4] = test system: Human alphaherpesvirus 2; experiment: Compound was tested for antiviral activity against HSV-2; Not active; format: functional, organism-based
[5] = test system: Human immunodeficiency virus 1; experiment: Compound was tested for antiviral activity against HIV-1; Not active; format: functional
[6] = test system: Human betaherpesvirus 5; experiment: Compound was tested for antiviral activity against HCMV; Not active; format: functional, organism-based

Measured: Activity

NC(=O)c1ncn(C2O[C@H](CO)C(O)[C@H]2F)n1 (single isomer, unassigned)
inactive: all assays above

NC(=O)c1ncn([C@@H]2O[C@H](CO)C(O)[C@H]2F)n1 (single isomer, unassigned)
inactive: all assays above
